Reference: US11013687B1, “Preventive and therapeutic treatment for COVID 19 and any other disease caused by SARS CoV 2” (priority 2020, dated 2021)

Assays:
SARS-CoV-2 = assay type: cell-based
[1] = used in much larger amounts as food additive and sweetener than for nasal delivery; cited from earlier work
[2] = cited from earlier work

Compound | capable of inhibiting SARS CoV 2 in vitro (in words) (SARS-CoV-2; xylitol alone) | safety for humans [1] | Log reduction of TCID50/mL after 48 hs. (mean of three replicates) (SARS-CoV-2; 6 μg/mL iota carrageenan, Vero E6, treated pre- and post-infection, 48 h, vs virus only, LOD in next column = titre at limit of detection) | concentration capable of inhibiting SARS CoV 2 in vitro (SARS-CoV-2; concentration of iota Carrageenan, alone or in combination with xylitol) | time iota Carrageenan stays in the nasal mucosa ([2]; clinical trials with a formulation containing xylometazoline and iota Carrageenan) | residence time ([2]; nasal, estimation basis for dosing each 4 hours)
OC[C@@H](O)[C@H](O)[C@@H](O)CO [xylitol, Xylitol] | capable of inhibiting SARS CoV 2 in vitro | safe for humans | – | – | – | –
iota Carrageenan | – | safe for humans | significantly reducing viral titers | not less than 6 μg/mL | about 4 hrs | approximately 4 hour
